How the values were obtained:
Settings in all cases: 72 h
[1] = tested on: Vero E6; test: drug sensitivity score (DSS) for viability; higher = more toxic; extreme values may be limits of the assay
[2] = tested on: U2OS; test: as above
[3] = tested on: HepG2; test: as above
[4] = tested on: Calu-3; test: as above
[5] = tested on: Caco-2; test: as above
[6] = tested on: Vero E6; test: relative viability EC50 (midpoint between 100% and the lowest measured viability); higher = less toxic
[7] = tested on: U2OS; test: as above
[8] = tested on: HepG2; test: as above
[9] = tested on: Calu-3; test: as above
[10] = tested on: Vero E6; test: cell viability relative to DMSO; higher = less toxic
[11] = tested on: U2OS; test: as above
[12] = tested on: HepG2; test: as above
[13] = tested on: Calu-3; test: as above
[14] = tested on: Caco-2; test: as above

Structure (SMILES) | drug sensitivity score [1] | drug sensitivity score [2] | drug sensitivity score [3] | drug sensitivity score [4] | drug sensitivity score [5] | relative viability EC50 [6] [µM] | relative viability EC50 [7] [µM] | relative viability EC50 [8] [µM] | relative viability EC50 [9] [µM] | cell viability ([10]; 1 nM) [%] | cell viability ([10]; 10 nM) [%] | cell viability ([10]; 100 nM) [%] | cell viability ([10]; 1000 nM) [%] | cell viability ([10]; 10000 nM) [%] | cell viability ([11]; 1 nM) [%] | cell viability ([11]; 10 nM) [%] | cell viability ([11]; 100 nM) [%] | cell viability ([11]; 1000 nM) [%] | cell viability ([11]; 10000 nM) [%] | cell viability ([12]; 1 nM) [%] | cell viability ([12]; 10 nM) [%] | cell viability ([12]; 100 nM) [%] | cell viability ([12]; 1000 nM) [%] | cell viability ([12]; 10000 nM) [%] | cell viability ([13]; 1 nM) [%] | cell viability ([13]; 10 nM) [%] | cell viability ([13]; 100 nM) [%] | cell viability ([13]; 1000 nM) [%] | cell viability ([13]; 10000 nM) [%] | cell viability ([14]; 1 nM) [%] | cell viability ([14]; 10 nM) [%] | cell viability ([14]; 100 nM) [%] | cell viability ([14]; 1000 nM) [%] | cell viability ([14]; 10000 nM) [%]
COc1cc2ncnc(Nc3ccc(Cl)cc3F)c2cc1OC | 7.4 | 0.7 | 0 | 9 | 4.7 | 0.434 | > 10 | > 10 | 0.903 | 100 | 99.2 | 87.7 | 66.8 | 48.6 | 97.3 | 98.5 | 99.4 | 96.3 | 84.1 | 99.1 | 107 | 89.4 | 109 | 87.1 | 96.2 | 103 | 90.2 | 61.1 | 22.6 | 91.1 | 91.6 | 88.6 | 81.5 | 62.4
Cc1c(C(=O)NCCCO)cnn1-c1nc(-c2cccc(C(F)(F)F)c2)cs1 | 0 | 0.5 | 2.1 | 0 | 1.4 | > 10 | > 10 | – | > 10 | 98.1 | 95.9 | 102 | 97.7 | 90.3 | 101 | 103 | 93.3 | 98.1 | 83.9 | 99.3 | 91.1 | 96 | 106 | 52.9 | 107 | 102 | 112 | 104 | 94.3 | 93.5 | 91.4 | 96.1 | 102 | 67.1
NC1(C(=O)N[C@@H](CCO)c2ccc(Cl)cc2)CCN(c2ncnc3[nH]ccc23)CC1 [AZD5363] | 0 | 3.6 | 3 | 2.5 | 5.3 | > 10 | – | – | > 10 | 98.7 | 99.9 | 96.4 | 94.8 | 90.8 | 97.4 | 94.7 | 92.5 | 90.9 | 57.5 | 99.3 | 101 | 93.8 | 84.8 | 66.6 | 113 | 101 | 102 | 85.6 | 75.6 | 100 | 102 | 93.3 | 74.8 | 54.6
CC1(C)CC(Oc2ccc(-c3ccc(-c4cn[nH]c4)cc3O)nn2)CC(C)(C)N1 [LMI070] | 11.5 | 6.2 | 10.7 | 2.9 | 2 | 0.935 | 2.6 | 0.926 | – | 101 | 102 | 104 | 48.5 | 5.1 | 96.4 | 102 | 103 | 93.5 | 6.6 | 107 | 104 | 110 | 51.8 | 12.4 | 96.7 | 97.1 | 92.7 | 74.5 | 85.4 | 95.1 | 108 | 106 | 94.6 | 72.5
CC[N+](CC)(CC)CCOc1ccc(/C=C/c2ccccc2)cc1 [MG-624] | 0 | 0 | 0.7 | 0 | 2.3 | > 10 | > 10 | > 10 | > 10 | 97.9 | 91 | 88.6 | 97.8 | 97.4 | 101 | 103 | 100 | 104 | 93 | 106 | 102 | 102 | 99.3 | 78.9 | 101 | 103 | 94.3 | 95.4 | 93.3 | 101 | 100 | 93.6 | 89.3 | 68.7
CCOc1cc(C(C)(C)C)ccc1C1=N[C@@](C)(c2ccc(Cl)cc2)[C@@](C)(c2ccc(Cl)cc2)N1C(=O)N1CCN(CCCS(C)(=O)=O)CC1 [RG7112] | 7.1 | 5.5 | 13.7 | 2 | 3.1 | 1.38 | 1.34 | 0.327 | > 10 | 106 | 107 | 99.3 | 78.1 | 28.8 | 97.6 | 98.1 | 96.9 | 80.5 | 44.7 | 95.1 | 102 | 86.3 | 35.2 | 20.6 | 98 | 94.6 | 101 | 89 | 77.5 | 101 | 95.9 | 104 | 94.5 | 56.6
O=C1N=C(NCc2cccs2)S/C1=C\c1ccc2ncccc2c1 [Ro-3306] | 1.1 | 0.7 | 9.2 | 0 | 1 | > 10 | > 10 | – | > 10 | 97 | 97.4 | 98.5 | 93.8 | 80.9 | 97.9 | 98.5 | 97.1 | 98.3 | 81.1 | 93.2 | 77.7 | 90.2 | 62.2 | 51 | 101 | 113 | 94 | 103 | 104 | 89.1 | 105 | 97.2 | 100 | 74.2
CCOc1cc(C(=O)Nc2ccc(Cl)c(-c3nc4ccccc4[nH]3)c2)cc(OCC)c1OCC [SANT-2] | 0 | 0 | 2.5 | 1.7 | 3.4 | > 10 | > 10 | – | > 10 | 97.4 | 93.7 | 99.4 | 95.2 | 92.6 | 94.2 | 98.8 | 98.3 | 103 | 90 | 102 | 94.4 | 99.6 | 90.9 | 71.5 | 103 | 111 | 97.5 | 94 | 75.7 | 94.6 | 102 | 89.4 | 91.6 | 57.8
COc1cc2c(cc1OC)CN(C(=O)/C=C/c1c(-c3ccccc3)n(C)c3ncccc13)CC2 [SIS3] | 0 | 0 | 0 | – | 1.8 | > 10 | > 10 | > 10 | – | 100 | 93.3 | 98.8 | 98.2 | 100 | 99 | 101 | 94.9 | 99.9 | 96.2 | 98.9 | 106 | 106 | 106 | 106 | – | – | – | – | – | 93.9 | 94.5 | 88.8 | 96.5 | 71.1
C[C@]12CC[C@H]3[C@@H](CCC4=CC(=O)CC[C@@]43C)[C@@H]1CC[C@@H]2O [TESTOSTERONE] | 0 | 0 | 0 | 0 | 8.9 | > 10 | > 10 | > 10 | > 10 | 97.6 | 103 | 98.7 | 108 | 87.9 | 102 | 92.4 | 98.7 | 100 | 94.6 | 81 | 91.7 | 104 | 104 | 95.1 | 95.2 | 99.1 | 102 | 95.3 | 92.3 | 104 | 97.6 | 70.8 | 72.6 | 79.9
Cc1c2oc3c(C)ccc(C(=O)N[C@@H]4C(=O)N[C@@H](C(C)C)C(=O)N5CCC[C@H]5C(=O)N(C)CC(=O)N(C)[C@@H](C(C)C)C(=O)O[C@@H]4C)c3nc-2c(C(=O)N[C@@H]2C(=O)N[C@@H](C(C)C)C(=O)N3CCC[C@H]3C(=O)N(C)CC(=O)N(C)[C@@H](C(C)C)C(=O)O[C@@H]2C)c(N)c1=O [actinomycin-d] | 20.1 | 29.2 | 36.5 | 25.9 | 15.2 | 0.166 | 0.0296 | 0.0085 | 0.0152 | 101 | 102 | 79.5 | 6.9 | 7.9 | 105 | 65.9 | 31.5 | 0.7 | 1 | 113 | 41.4 | 15.9 | 3.1 | 5.1 | 102 | 71.4 | 31.7 | 24.5 | 36.7 | 95.6 | 77.5 | 58.6 | 61 | 65.9
Cc1nc(NC(=O)N2CCC[C@H]2C(N)=O)sc1-c1ccnc(C(C)(C)C(F)(F)F)c1 [alpelisib] | 1.2 | 1.8 | 6.1 | 9.2 | 3.9 | > 10 | – | – | 0.743 | 104 | 104 | 98.4 | 94.7 | 80.3 | 102 | 93.3 | 96.8 | 89.9 | 73.7 | 102 | 99.7 | 89.6 | 71 | 60.1 | 87.4 | 93.8 | 88.4 | 60.8 | 25.7 | 107 | 102 | 89.8 | 91.5 | 52.3
COc1ccccc1OCCNCC(O)COc1cccc2[nH]c3ccccc3c12 (stereo not drawn) [carvedilol] | 0 | 0 | 0.1 | 0 | – | > 10 | > 10 | > 10 | > 10 | 100 | 102 | 94.2 | 107 | 94.7 | 96.4 | 100 | 103 | 93.1 | 92.3 | 99.3 | 108 | 88.7 | 100 | 86.6 | 97 | 92.2 | 102 | 89.2 | 97.4 | – | – | – | – | –
Clc1ccccc1C(c1ccccc1)(c1ccccc1)n1ccnc1 [clotrimazole] | 0 | 1.2 | 2.2 | 0 | 2.2 | > 10 | – | – | > 10 | 93.8 | 95.3 | 100 | 99.2 | 89.9 | 104 | 104 | 95.9 | 99.5 | 72 | 96.9 | 98 | 114 | 99.8 | 56.9 | 94.7 | 102 | 92.9 | 96.4 | 94 | 96 | 97.1 | 96.2 | 91.9 | 71

— the supplement of paper PMC13380429
